Assay [1] deals with T1, Δ^1–24-C65A + P110A (Mus musculus, UniProt O09114, C65A/P110A).
T1 sequence (O09114 1-189 C65A/P110A): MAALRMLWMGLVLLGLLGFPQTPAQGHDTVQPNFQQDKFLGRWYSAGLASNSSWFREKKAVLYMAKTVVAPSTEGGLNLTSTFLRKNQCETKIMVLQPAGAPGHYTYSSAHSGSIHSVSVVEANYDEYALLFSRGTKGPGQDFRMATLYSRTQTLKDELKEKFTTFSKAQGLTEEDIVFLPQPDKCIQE
In words: biochemical.

Assay [2] has as its target T2, mouse Δ1–24-L-PGDS (lipocalin type prostaglandin D synthase) (Mus musculus, UniProt O09114, H116A).
T2 sequence (O09114 25-189 H116A): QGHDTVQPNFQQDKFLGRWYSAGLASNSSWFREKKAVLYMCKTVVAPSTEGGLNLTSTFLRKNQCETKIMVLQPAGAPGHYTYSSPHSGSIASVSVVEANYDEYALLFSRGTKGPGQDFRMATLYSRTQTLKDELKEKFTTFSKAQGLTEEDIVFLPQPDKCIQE
In words: biochemical.

The target in assay [3] is T3, Δ^1–24-L-PGDS + P110A (Mus musculus, UniProt O09114, P110A).
T3 sequence (O09114 1-189 P110A): T1 sequence (O09114 1-189 C65A/P110A) with A65C
In words: biochemical.

The target of assay [4] is T4, mouse Δ1–24-L-PGDS (lipocalin type prostaglandin D synthase) (Mus musculus, UniProt O09114, S45A).
T4 sequence (O09114 25-189 S45A): T2 sequence (O09114 25-189 H116A) with S21A, A92H
In words: surface plasmon resonance. The assay is classed as binding.

Assay [5] deals with T5, mouse Δ1–24-L-PGDS (lipocalin type prostaglandin D synthase) (Mus musculus, UniProt O09114, H111A/W54A).
T5 sequence (O09114 25-189 W54A/H111A): T2 sequence (O09114 25-189 H116A) with W30A, H87A, A92H
In words: surface plasmon resonance. The assay is classed as binding.

For assay [6], the target named is T2, mouse Δ1–24-L-PGDS (lipocalin type prostaglandin D synthase). In words: surface plasmon resonance. Format: binding.
In assay [7] the target is T6, Δ^1–24-L-PGDS + S45A/S81A (Mus musculus, UniProt O09114, S45A/S81A).
T6 sequence (O09114 1-189 S45A/S81A): T1 sequence (O09114 1-189 C65A/P110A) with S45A, A65C, S81A, A110P
In words: biochemical.

Changes are numbered by the printed parent chain.

As to `CCCCC[C@H](O)/C=C/[C@H]1[C@@H]2CO[C@@H](C2)[C@@H]1C/C=C\CCCC(=O)O` [U-44069], the Kd in assay [1] is 22.4 ± 1.4 µM; in assay [2], 27.3 ± 2.5 µM; in assay [3], 13.5 ± 3.1 µM; in assay [4] it was 15.2 ± 2.4 µM; in assay [5], 20.6 ± 1.4 µM.
Consider `CCCCC[C@H](O)/C=C/[C@@H]1[C@@H](C/C=C\CCCC(=O)O)[C@H]2CO[C@@H]1C2` [U-46619], for which the Kd in assay [4] was found to be 16.2 ± 1.4 µM; in assay [5], 48.5 ± 4.4 µM; in assay [6] it was 48.5 ± 4.4 µM; in assay [7] it was 19.1 ± 2.6 µM.

The values above are taken from paper PMC2755957 (The Journal of Biological Chemistry, 2009).
